For 79 molecules, RP-LC retention time results are on record in the METLIN SMRT retention time set (Domingo-Almenara et al. 2019).

SMILES strings stand for the structures.

This series can be described thus: gradient 5% acetonitrile 3 min, to 50% in 2 min, to 85% in 15 min, held 3 min, 100 µL/min. Conditions: column: Zorbax Extend-C18 2.1 x 50 mm; eluents: water / acetonitrile, 0.1% formic acid. An outline of the steps:
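Data were gathered over 3 months by HPLC coupled to a quadrupole time-of-flight mass spectrometer, operated in positive and negative ionization mode. Mixtures of ~100 pure standards ran on a Zorbax Extend-C18 column (2.1 × 50 mm, 1.8 μm) at 100 μL/min, with water and acetonitrile each containing 0.1% formic acid and dead and dwell volumes of 40 μL and 900 μL. Retention time was read from adduct peaks picked by computer and checked manually.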
`O=C(c1nnc(-c2ccc(S(=O)(=O)N3CCOCC3)cc2)o1)N1CCCCC1` came in with an RP-LC retention time of 785 s. The figure for `COc1cc(NC(=O)C2CCN(S(=O)(=O)c3ccc4c(c3)sc(=O)n4C)CC2)cc(OC)c1` is 875 s; for `N#CC1=C(SCC(=O)NCc2ccccc2)NC(=O)CC1c1ccco1` (centres undefined) it is 770 s; for `OC(CNCc1ccc(-c2ccc(Cl)cc2Cl)o1)c1ccccc1` (centres undefined) it is 800 s. The figure for `O=C(NC1CCCCC1)c1ccc(Nc2c(-c3ccc(Cl)cc3)nc3cnccn23)cc1` is 909 s; for `CCc1ccc(CNC(=O)C2CCCN(c3nc4c(s3)c(C)nn4-c3ccc(Cl)cc3)C2)cc1` (centres undefined) it is 1380 s.

As to `O=C(NCc1ccccn1)c1cccn1Cc1noc(-c2ccc(Cl)cc2)n1`, the RP-LC retention time worked out at 743 s. The figure for `O=C1C(OC2CCN(Cc3cc(F)ccc3F)CC2)CCN1C1CCCC1` (centres undefined) is 641 s. The figure for `O=C(NC1CCCC1)c1cccn1Cc1noc(-c2ccccc2)n1` is 981 s. In turn, `COc1cc(C(=O)Nc2nc(-c3ccc4c(c3)N(C)C(=O)CO4)c(C)s2)cc(OC)c1OC` gave an RP-LC retention time of 964 s. Molecule `CCN1c2cc(Cl)ccc2C(=O)NC12CCN(C(=O)NCc1ccc(C)cc1)CC2` had an RP-LC retention time of 888 s. The figure for `Cc1ccc(N2CC(c3nc(-c4cccs4)no3)CC2=O)cc1` (centres undefined) is 877 s; for `O=C(CC1CCCC1)N1CCN(c2nnc3ccc(C(F)(F)F)cn23)CC1` it is 797 s; for `Cn1nc(-c2nc(Cc3ccccc3)no2)c2c1CCN(C(=O)C1(c3ccccc3)CC1)C2` it is 962 s. As for `CCc1nc(-c2csc(S(=O)(=O)N3CCCC(C(=O)Nc4nccs4)C3)c2)no1` (centres undefined), the RP-LC retention time turned out to be 884 s. In turn, `CC1Oc2ccccc2OC1C(=O)Nc1cccc(-c2cn3c(n2)SCC3)c1` (centres undefined) gave an RP-LC retention time of 656 s.

The molecule `CCOC(=O)c1noc2ncnc(NC3CCN(Cc4ccccc4)CC3)c12` showed an RP-LC retention time of 616 s. The figure for `O=C(Cc1cccc(F)c1)N1CCC2(CC1)N=C(c1ccc(Cl)cc1)NO2` is 912 s; for `Cc1cc(N(C)C)nc(N2CCN(S(=O)(=O)c3ccc(Br)cc3)CC2)n1` it is 733 s; for `Cc1cccc(NC(=O)C2CCN(S(C)(=O)=O)c3cc(C)ccc3O2)c1` (centres undefined) it is 943 s. The figure for `COc1ccccc1-c1nnc(-c2ccc(Cl)c(S(=O)(=O)N(C)C)c2)o1` is 913 s; for `c1ccc(-c2cn3ccccc3n2)cc1` it is 644 s. As for `O=C(Cn1cccc1-c1nnc(-c2ccccc2)o1)N1CCN(Cc2ccc3c(c2)OCO3)CC1`, the RP-LC retention time was 709 s.

The molecule `O=C(CCNc1c(-c2ccc(F)cc2)nc2cnccn12)NCc1ccc2c(c1)OCO2` registered an RP-LC retention time of 716 s.

As to `Cn1cc(C(=O)NCc2ccccc2F)c(S(=O)(=O)N2CCSCC2)n1`, the RP-LC retention time was determined as 865 s. The figure for `CCN(CC)c1ncnc2c(-c3ccccc3)cn(CC(=O)N3CCCC3)c12` is 674 s. The figure for `O=c1c2ccccc2ccc2ccccc12` is 1120 s. The figure for `Cc1cccc(CN2CC(=O)N(c3ccc(C)c(C)c3)[C@@H]3CS(=O)(=O)C[C@@H]32)c1` is 906 s; for `Cc1ccc(C)c(NC(=O)CCc2cccc3[nH]ccc23)c1` it is 879 s. Turning to `Cc1cc(C)n(-c2ccnc(N3CCc4ccccc43)n2)n1`, the RP-LC retention time was determined as 1340 s. Take `O=C(NCc1ccc(F)cc1)C(=O)NCC(c1ccc2c(c1)OCO2)N1CCOCC1` (centres undefined): the RP-LC retention time is 648 s. As for `O=c1n(Cc2ccc(F)cc2)nc2ccc(S(=O)(=O)N3CCOCC3)cn12`, the RP-LC retention time amounted to 785 s.

`COCCN1C(=O)c2ccccc2C(C(=O)Nc2cc(C)ccn2)C12CCCCC2` (centres undefined) gave an RP-LC retention time of 745 s. `Cc1nc(-c2csc(S(=O)(=O)N3CCC(C(=O)N4CCCCC4)CC3)c2)no1`: the RP-LC retention time turned out to be 818 s. The figure for `CCOC(=O)c1nc(N(C)c2cccc(C)c2)c2ccccc2n1` is 982 s; for `CCCCC(=O)Nc1nc(-c2ccc3c(c2)NC(=O)C(C)O3)cs1` (centres undefined) it is 863 s. The figure for `COC(=O)c1cccc(C(=O)Nc2cc(C)cc(C)c2)n1` is 931 s; for `COc1ccc(NC(=O)CN2C(=O)C3CCCN3C(=O)c3ccc(F)cc32)cc1` (centres undefined) it is 693 s; for `COc1ccccc1CCNC(=O)CCCn1cccc1` it is 774 s. The figure for `Cc1ccc(Nc2nc(C)cc(N3CCN(C(=O)Nc4ccccc4C)CC3)n2)cc1` is 704 s; for `CCc1ccc(NC(=O)CSc2ccc(N3CCCC(C(=O)NC4CC4)C3)nn2)cc1` (centres undefined) it is 695 s. The molecule `Cc1nnc(-c2ccc3ccn(CC(=O)Nc4ccc5c(c4)OCCO5)c3c2)o1` showed an RP-LC retention time of 756 s. The figure for `Cc1cc(=O)n(CC(=O)Nc2cc(F)cc(F)c2)c(N2CCOCC2)n1` is 724 s; for `COc1ccc(C2CNC(=O)C2)cc1OC1CCCC1` (centres undefined) it is 794 s; for `O=S(=O)(NC1CCCCC1)c1ccc(-c2cc(C(F)(F)F)on2)o1` it is 1120 s. The figure for `COc1ccccc1NC(=O)C1Cc2ccccc2CN1S(=O)(=O)c1ccccc1` (centres undefined) is 1070 s. The figure for `C=CC(=O)Nc1cccc(Oc2nc(Nc3ccc(N4CCN(C)CC4)cc3)ncc2Cl)c1` is 695 s; for `CN(C)C(=O)C1CN(C(=O)c2ccc(Br)cc2)CC12CCOCC2` (centres undefined) it is 631 s. With `O=C(Nc1ccc(N2CCOCC2)cc1)C1CCCN(c2nccnc2Oc2ccccc2)C1` (centres undefined), the RP-LC retention time came out at 852 s.

Take `Cc1noc(C)c1-c1ccc(S(=O)(=O)Nc2cccc(Br)c2)cc1`: the RP-LC retention time amounted to 1000 s.

Molecule `CN(C)CC1(O)CCC2(CCN(C(=O)c3ccoc3)CC2)CC1` had an RP-LC retention time of 570 s. The figure for `CC1(C(=O)NCc2ccc(F)cc2)CCCN(C(=O)NC2COc3ccccc3C2)C1` (centres undefined) is 875 s; for `O=C(NCc1ccccc1Br)C1CCN(c2cnc3nccnc3c2)CC1` it is 739 s. The figure for `Cc1ccccc1OCC(O)CN1CCN(Cc2ccc3c(c2)OCO3)CC1` (centres undefined) is 566 s. The molecule `Cn1nc(-c2nnc(-c3ccc(F)cc3)o2)c2c1CCN(S(=O)(=O)c1cccc3cccnc13)C2` yielded an RP-LC retention time of 882 s. As to `Cc1oc(-c2ccc(Cl)cc2)nc1Cn1nnc(C(=O)Nc2cc(F)ccc2F)c1C`, the RP-LC retention time is 1310 s.

Turning to `Cn1nc(-c2nc(C3CC3)no2)c2c1CCN(C(=O)c1ccc(Br)cc1)C2`, the RP-LC retention time amounted to 893 s.

Take `CCn1cc(-c2ccc(Cl)cc2)cc1C(=O)NCC1CCCO1` (centres undefined): the RP-LC retention time came to 1010 s. On to `CC(C)(C)N(C(=O)c1ccccc1[N+](=O)[O-])C(=O)N1CCCCC1`, for which the RP-LC retention time came out at 828 s.

`O=C(C1CCN(c2ncccc2-c2nc(-c3ccccc3)no2)CC1)N1CCOCC1` registered an RP-LC retention time of 839 s. The molecule `C[C@H]1CN(C(=O)Nc2ccc(Cl)cc2)C[C@@H]1c1nc(-c2ccccc2)no1` showed an RP-LC retention time of 1080 s. The figure for `COCCNc1nnc(-c2nc(-c3ccc(F)cc3)no2)c2ccccc12` is 801 s; for `O=C(OCCc1ccccn1)c1cn(-c2ccccc2)c(=O)c2ccccc12` it is 696 s. The figure for `CCOC(=O)CC(=O)CSc1ccc2nnc(-c3cccs3)n2n1` is 671 s; for `Cc1ccc(NS(=O)(=O)c2cc(-c3nc(C(C)(C)C)cs3)cs2)cc1` it is 1210 s; for `CCC(C)C(NC(=O)c1ccc(C)cc1C)C(=O)Nc1nc2ccccc2[nH]1` (centres undefined) it is 786 s.

Consider `O=C(NCC1CCCO1)c1cn(-c2ccc(NC(=O)C3CC3)cn2)cn1` (centres undefined), for which the RP-LC retention time was 633 s. The figure for `Cc1c(C(=O)N2CCN(c3ccccn3)CC2)oc2ccc3c(c12)C(=O)CC1(CCCCCC1)O3` is 879 s. The figure for `Cc1cccc(C(=O)N2CCC3(CC2)NC(=O)c2ccc(F)cc2N3C)c1` is 763 s; for `CCc1nc(-n2cccc2)sc1C(=O)Nc1ccc(OC)c(OC)c1` it is 965 s; for `Cc1ccc(-c2nnc(-c3ccccc3Cl)o2)cc1S(=O)(=O)N(C)C` it is 999 s.

In turn, `CCCOc1nc2ccccc2nc1N1CCCC(C(=O)NC2CCCCC2C)C1` (centres undefined) returned an RP-LC retention time of 1310 s. The molecule `CN(Cc1ccco1)C(=O)C1CCCN(c2ncnc3c2nc2n3CCCCC2)C1` (centres undefined) displayed an RP-LC retention time of 738 s. The figure for `COc1ccc(N2C(=O)C3N=NN(Cc4nc(-c5ccc(Br)cc5)no4)C3C2=O)cc1` (centres undefined) is 1020 s; for `Cc1cc(S(=O)(=O)N2CCC(n3c(-c4ccco4)nc4cccnc43)C2)ccc1F` (centres undefined) it is 827 s.

`O=C(c1nnn(-c2ccc(Cl)cc2)c1-c1cccnc1)N1CCSCC1`: the RP-LC retention time was 780 s. The figure for `O=C(c1cccc(F)c1)N1CCN(C(=O)c2nsc3ccccc23)CC1` is 760 s; for `CC(C)n1cnc(S(=O)(=O)N2CCCC(C(=O)NCc3ccc(Cl)cc3)C2)c1` (centres undefined) it is 799 s; for `O=c1c2cc(-c3ccc(F)cc3)nn2ccn1CC(O)c1ccc(F)cc1` (centres undefined) it is 859 s.
